Data reported in publication PMC5983452 (PLoS ONE, 2018).
Entries after “also recorded” stand apart in the source; their conditions may differ. Where a name gives a salt, the structure may show the parent alone.

Assays:
[1] = in vitro; assay type: in vitro ADME, SD rats; conditions: male, Sprague-Dawley
[2] = in vitro; conditions: human, plasma, pH 7.4, Human fu (unbound fraction)
Method: (§1) Caco-2 permeability. Caco-2 cells (obtained from the ATCC), between passage numbers 40 to 60, were seeded onto Millipore
(§2) Multiscreen plates at 1x10^5 cells/cm2 in Dulbecco's Modified Eagle Medium. Media was changed every two or three days. On
(§3) Day 20, the permeability study was performed using Hanks Balanced Salt Solution (HBSS) pH 7.4 buffer with 25 mM HEPES and
(§4) Incubations were carried out in an atmosphere of 5% CO2 with a relative humidity of
(§5) The monolayers were prepared by rinsing both basolateral and apical surfaces twice with HBSS at 37°C. Cells were
(§6) then incubated with HBSS in both apical and basolateral compartments for 40 min to stabilize physiological parameters. HBSS […]
(§7) removed and apical and basolateral samples diluted for analysis by LC-MS/MS. Permeability was assessed in duplicate, on two
(§8) different occasions. […] Compounds were quantified by LC-MS/MS analysis using a 5 point calibration curve. The starting concentration (C0) was determined from the dosing solution and
(§9) experimental recovery calculated from C0 and both apical and basolateral compartment concentrations. […]
(§10) (Papp) for each compound was calculated as: (dQ/dt)/(C0xA), where dQ/dt is the rate of permeation of the drug across the cells, C0 […]
(§11) Plasma protein binding. Plasma protein binding was assessed by equilibrium dialysis utilizing the HT-dialysis cell format with a […]

[3] = in vitro; assay type: in vitro ADME, cyno-monkeys; conditions: male, monkey, microsomes, pH 7.4
[4] = test system: A549 cells; experiment: Trametinib growth inhibition in combination with EPZ028862; assay type: cell-based; conditions: 2, 5 and 7 days
Text: Plotted data is the average of three biological replicates. Error bars represent standard deviation. (PDF) Click here for additional data file.

[5] = test system: lung cancer cell lines; conditions: read-out: impact on proliferation of NSCLC and other lung cancer cell lines (none at concentrations as high as)
[6] = in vitro; assay type: in vitro ADME; conditions: plasma
Method: After stirred for 30 min at 25 °C, NaBH3CN […]
mixture was concentrated under vacuum. […] The combined organic […]
The crude product was further
The fractions containing product were combined and concentrated. […]
cyclopropylisoxazole-3-carboxamide hydrochloride as a light yellow solid.
Media was changed every two or three days. On
95% at 37°C. […] Cells were
At 120 min the companion plate was
Permeability was assessed in duplicate, on two […]
different occasions. […] Compounds were quantified by LC-MS/MS analysis using a 5 point calibration curve.
The permeability coefficient
Solutions of test compounds (1 µM, 0.5% final
Incubations were performed in
Haloperidol was incubated in parallel as the control compound for each species.
(7 points) and protein containing solutions (6 points).
Liver microsome (LM) stability. […]
the reaction. The final incubation volume was 50 µL. Negative control incubations were included where phosphate buffer was […]
min. The negative controls were incubated for 45 min only. […]
µL methanol at the appropriate time points.
Subsequently, intrinsic CL (CLint) was […]

[7] = Hepatocyte stability, monkey; assay type: in vitro ADME, cyno-monkeys; conditions: male, cryopreserved hepatocytes, read-out: CLint measured with hepatocytes, Monkey
[8] = Rat pharmacokinetic study; assay type: in vivo, male Sprague Dawley rats; conditions: male Sprague Dawley
Method: 2. […] Food was returned 4 hours after dosing. […] 4. […] Food was returned 4 hours after dosing. […] Supplemental Results:SMYD2 compound characterization […] The […] nM (Figure S8A).

[9] = in vitro; assay type: in vitro ADME, humans
[10] = Hepatocyte stability, dog; assay type: in vitro ADME, beagle dogs; conditions: male, beagle, cryopreserved hepatocytes, read-out: CLint measured with hepatocytes, Dog
[11] = test system: panel of 140 cell lines grown in matrigel; experiment: cells; conditions: read-out: growth effects in panel of 140 cell lines grown in matrigel (none observed up to)
[12] = molecular target: SMYD2 (Homo sapiens, UniProt Q9NRG4); experiment: Intracellular BTF3 monomethylation (BTF3me1) western blot; assay type: cell-based; set-up: endogenous in cells; host or cells: 313 cancer cell lines; conditions: read-out: Intracellular Methylation IC50
Method: Cells were lysed in 1X RIPA Buffer containing 10% SDS and Halt™ Protease Inhibitor Cocktail (Thermo Fisher Scientific) and incubated on ice for 30 minutes before sonication (Amplitude 20%/10sec) twice. Lysates were spun at […] at 4°C for 10min and normalized for protein concentration by BCA assay (Thermo Fisher Scientific). […] Blots were imaged using the Odyssey Imaging System (LICOR Biosciences). […] BTF3me1 is a custom generated polyclonal antibody, affinity purified from serum of rabbits injected with adjuvant conjugated peptide corresponding to methylated K1 of BTF3 (K(Me)-[…]).
SMYD2 catalyzes the methylation of lysine residues on several proteins, including BTF3 [40].

[13] = molecular target: T1, SMYD3 (Homo sapiens, UniProt Q9H7B4); experiment: SMYD3 biochemical methylation assay (3H-SAM, GST-MAP3K2/MEKK2 substrate); set-up: Protein purification of both isoforms of full length SMYD3 was performed as previously reported; made in house; conditions: tested in duplicate; read-out: selectivity panel result, SMYD3 (off-target)
T1 sequence (Q9H7B4 1-428): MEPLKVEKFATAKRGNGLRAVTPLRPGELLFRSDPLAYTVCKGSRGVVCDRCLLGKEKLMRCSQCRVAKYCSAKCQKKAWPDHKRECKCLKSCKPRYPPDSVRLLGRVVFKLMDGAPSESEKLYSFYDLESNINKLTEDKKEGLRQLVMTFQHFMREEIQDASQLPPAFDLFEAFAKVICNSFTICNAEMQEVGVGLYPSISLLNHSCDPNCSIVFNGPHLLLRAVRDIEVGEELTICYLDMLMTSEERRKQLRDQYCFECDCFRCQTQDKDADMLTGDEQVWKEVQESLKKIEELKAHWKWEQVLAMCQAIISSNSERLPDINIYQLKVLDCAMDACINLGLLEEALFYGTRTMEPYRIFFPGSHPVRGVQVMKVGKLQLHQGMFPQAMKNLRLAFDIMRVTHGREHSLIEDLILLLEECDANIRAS
Method: SMYD3 assays were performed as previously described using N-terminally GST-tagged MAP3K2 protein substrate. […] Reactions were conducted at room temperature with enzyme and inhibitor incubated for 30 minutes before initiating the reaction with substrates. Dose-response curves were tested in duplicate in each experiment. […] Quenched reactions were transferred to a streptavidin-coated flashplate (Perkin Elmer) for capture of the biotinylated peptide. After 2 h incubation at room temperature, the flashplate was washed once with 0.1% Tween-20 and read on a Perkin Elmer Topcount NXT plate reader. Substrate apparent KM values were determined by measuring the initial velocities (v0) in duplicate while varying one substrate at fixed concentration of the second substrate.
Mechanism of inhibition was determined by measuring the inhibitor IC50 values while varying the concentration of one substrate at a fixed concentration of the second substrate equal to its KM value.

[14] = Plasma protein binding (equilibrium dialysis), human; conditions: pH 7.4, Human fu (unbound fraction)
Method: as §1, §2, §3, §4, §5, §6, §7, §8, §9, §10, §11

[15] = test system: Caco-2 cells; experiment: Caco-2 permeability
Method: as §1, §2, §3, §4, §5
(§12) then incubated with HBSS in both apical and basolateral compartments for 40 min to stabilize physiological parameters. HBSS
(§13) was then removed from the apical or basolateral compartment and replaced with 10 µM test compound dosing solutions (1% final
(§14) DMSO). The pH of supplemented HBSS was 6.5 and 7.5 in the apical and basolateral compartments, respectively. The apical
(§15) compartment inserts were then placed into ‘companion’ plates containing fresh HBSS.
as §7
(§16) different occasions. On each plate atenolol and propanolol were run as controls. Compounds were quantified by LC-MS/MS analysis using a 5 point calibration curve. The starting concentration (C0) was determined from the dosing solution and
(§17) experimental recovery calculated from C0 and both apical and basolateral compartment concentrations. The permeability coefficient
(§18) (Papp) for each compound was calculated as: (dQ/dt)/(C0xA), where dQ/dt is the rate of permeation of the drug across the cells, C0
(§19) is the donor compartment concentration at time zero and A is the area of the cell monolayer.
(§20) Plasma protein binding. Plasma protein binding was assessed by equilibrium dialysis utilizing the HT-dialysis cell format with a
(§21) cellulose semi-permeable membrane (molecular weight cut-off of 5000 Da). Solutions of test compounds (1 µM, 0.5% final
(§22) DMSO concentration) were prepared in isotonic phosphate buffer (pH 7.4) and 100% pooled male CD-1 mouse plasma. The
(§23) buffer solution was added to one side of the membrane and the plasma solution to the other side. Incubations were performed in
(§24) Haloperidol was incubated in parallel as the control compound for each species. At the end of the incubation time, samples were taken from both sides of the membrane.
(§25) Following protein precipitation, the samples were analyzed by LC-MS/MS using two sets of calibration standards for protein free
(§26) (7 points) and protein containing solutions (6 points). Samples were quantified using standard curves prepared in the equivalent
(§27) matrix. The fraction unbound in plasma (fu) was calculated using the following equation:
(§28) Where, PC = sample concentration in protein containing side, PF = sample concentration in protein free side, and VCorrection =
(§29) correction factor for the volume shift i.e. ratio of the volume of the protein after dialysis to that before dialysis.

[16] = Caco-2 permeability; conditions: human, 10 µM
Method: as §1, §2, §3, §4, §5, §12, §13, §14, §15, §7, §16, §17, §18, §19, §20, §21, §22, §23, §24, §25, §26, §27, §28, §29

Sequence of SMYD2 (Q9NRG4 whole entry): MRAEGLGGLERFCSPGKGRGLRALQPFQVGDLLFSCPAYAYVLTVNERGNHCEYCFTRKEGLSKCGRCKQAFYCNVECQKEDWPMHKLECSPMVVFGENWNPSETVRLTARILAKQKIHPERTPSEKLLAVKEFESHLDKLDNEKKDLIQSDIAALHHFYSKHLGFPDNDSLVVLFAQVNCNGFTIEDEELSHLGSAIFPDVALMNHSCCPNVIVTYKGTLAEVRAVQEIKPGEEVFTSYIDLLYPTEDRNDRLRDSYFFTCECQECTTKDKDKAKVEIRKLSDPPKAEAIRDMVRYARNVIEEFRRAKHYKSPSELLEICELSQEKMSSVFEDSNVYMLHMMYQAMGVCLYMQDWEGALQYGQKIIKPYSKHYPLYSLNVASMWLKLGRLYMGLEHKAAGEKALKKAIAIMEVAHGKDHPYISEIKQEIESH

Compound: NC1CCC(S(=O)(=O)N2C3CCC2CC(NC(=O)c2cc(C4CC4)on2)C3)CC1 [EPZ028862, N-((1R,3R,5S)-8-((1r,4R)-4-aminocyclohexylsulfonyl)-8-aza-bicyclo[3.2.1]octan-3-yl)-5-cyclopropylisoxazole-3-carboxamide hydrochloride]
- CLint measured with liver microsomes, Rat ([1]; 1 µM, pH 7.4): 3.4 µL/min/mg microsomal protein
- microsomal CLint at 1 µM ([1]; rat, microsomes, pH 7.4, CLint measured with liver microsomes): < 3 µL/min/mg
- fraction unbound at 16 h, 1 µM [2]: 0.71
- microsomal CLint at 1 µM [3]: 3.2 µL/min/mg
- effect of 1 μM EPZ028862 on growth inhibition by trametinib [4]: unaffected; also recorded: no effect
- IC50 [5]: > 25 µM
- fraction unbound at 16 h, 1 µM ([6]; dog, pH 7.4): 0.82
- fraction unbound at 16 h, 1 µM ([6]; rat, pH 7.4, Rat fu (unbound fraction)): 0.64
- hepatocyte CLint at 1 µM [7]: 3.2 µL/min/1e6 cells
- bioavailability ([8]; plasma, IV 1 mg/kg, PO 5 mg/kg): 59 ± 10%
- half-life ([8]; plasma, IV 1 mg/kg, PO 5 mg/kg): 2.1 ± 0.2 h
- clearance ([8]; plasma, IV 1 mg/kg, read-out: CLp): 32.7 ± 4.4 mL/min/kg
- Vd ([8]; plasma, IV 1 mg/kg, read-out: Vss): 4.4 ± 0.1 L/kg
- Tmax ([8]; plasma, PO 5 mg/kg): 1 h
- CL renal ([8]; urine and plasma, IV 1 mg/kg): 21 ± 6 mL/min/kg
- microsomal CLint at 1 µM ([9]; both sexes, human, microsomes, pH 7.4, CLint measured with liver microsomes): < 3 µL/min/mg
- CLint measured with liver microsomes, Human ([9]; both, 1 µM, pH 7.4): 3.3 µL/min/mg microsomal protein
- hepatocyte CLint at 1 µM [10]: < 3 µL/min/1e6 cells
- IC50 [11]: > 25 µM

Compound: O=C(NC1CN(Cc2cnn(Cc3ccc(Cl)cc3)c2)C1)c1cn(C2CC2)nn1 [EPZ033294]
- IC50 [12]: 0.0029 µM
- IC50 [13]: > 10 µM
- fraction unbound at 16 h, 1 µM [14]: 0.13
- Caco-2 assay outcome in words [15]: both permeable and an efflux substrate
- Papp A→B at 120 min, 10 µM ([16]; Caco-2, Papp,AB, apical pH 6.5 / basolateral pH 7.5, 120 min): 2.18 ×10⁻⁶ cm/s
- Papp B→A at 120 min, 10 µM ([16]; Caco-2, Papp,BA, 120 min): 64.3 ×10⁻⁶ cm/s
